What was measured:
Format in all cases: functional
SNB-19 = test: Growth inhibition of human SNB19 cells after 48 hrs by sulforhodamine B assay; details: SNB-19, 48 h; for TGI: read-out: pTGI (converted)
RXF 393 = test: Growth inhibition of human RXF393 cells after 48 hrs by sulforhodamine B assay; details: RXF 393, 48 h; for TGI: read-out: pTGI (converted)
A549 = test: Growth inhibition of human A549 cells after 48 hrs by sulforhodamine B assay; details: A549, 48 h; for TGI: read-out: pTGI (converted)
SNB-75 = test: Growth inhibition of human SNB75 cells after 48 hrs by sulforhodamine B assay; details: SNB-75, 48 h; for TGI: read-out: pTGI (converted)
SW-620 = test: Growth inhibition of human SW620 cells after 48 hrs by sulforhodamine B assay; details: SW-620, 48 h; for TGI: read-out: pTGI (converted)
UACC-257 = test: Growth inhibition of human UACC257 cells after 48 hrs by sulforhodamine B assay; details: UACC-257, 48 h; for TGI: read-out: pTGI (converted)
MCF7 = test: Growth inhibition of human MCF7 cells after 48 hrs by sulforhodamine B assay; details: MCF7, 48 h
A498 = test: Growth inhibition of human A498 cells after 48 hrs by sulforhodamine B assay; details: A498, 48 h; for TGI: read-out: pTGI (converted)
MDA-MB-435 = test: Growth inhibition of human MDA-MB-435 cells after 48 hrs by sulforhodamine B assay; details: MDA-MB-435, 48 h; for TGI: read-out: pTGI (converted)
786-0 = test: Growth inhibition of human 786-0 cells after 48 hrs by sulforhodamine B assay; details: 786-0, 48 h; for CC50: read-out: pLC50 (the source's name) (converted); for TGI: read-out: pTGI (converted)
NCI-H522 = test: Growth inhibition of human NCI-H522 cells after 48 hrs by sulforhodamine B assay; details: NCI-H522, 48 h; for TGI: read-out: pTGI (converted)
PC-3 = test: Growth inhibition of human PC3 cells after 48 hrs by sulforhodamine B assay; details: PC-3, 48 h; for CC50: read-out: pLC50 (the source's name) (converted); for TGI: read-out: pTGI (converted)
HT-29 = test: Growth inhibition of human HT-29 cells after 48 hrs by sulforhodamine B assay; details: HT-29, 48 h; for TGI: read-out: pTGI (converted)
SF-539 = test: Growth inhibition of human SF539 cells after 48 hrs by sulforhodamine B assay; details: SF-539, 48 h; for TGI: read-out: pTGI (converted)
SR = test: Growth inhibition of human SR cells after 48 hrs by sulforhodamine B assay
Malme-3M = test: Growth inhibition of human MALME-3M cells after 48 hrs by sulforhodamine B assay; details: for TGI: read-out: pTGI (converted)
COLO 205 = test: Growth inhibition of human COLO205 cells after 48 hrs by sulforhodamine B assay; details: COLO 205, 48 h; for TGI: read-out: pTGI (converted)
ACHN = test: Growth inhibition of human ACHN cells after 48 hrs by sulforhodamine B assay; details: for TGI: read-out: pTGI (converted)
UACC-62 = test: Growth inhibition of human UACC62 cells after 48 hrs by sulforhodamine B assay; details: UACC-62, 48 h; for TGI: read-out: pTGI (converted)
BT-549 = test: Growth inhibition of human BT549 cells after 48 hrs by sulforhodamine B assay; details: BT-549, 48 h; for TGI: read-out: pTGI (converted)
LOX IMVI = test: Growth inhibition of human LOXIMVI cells after 48 hrs by sulforhodamine B assay; details: for TGI: read-out: pTGI (converted)
DU-145 = test: Growth inhibition of human DU145 cells after 48 hrs by sulforhodamine B assay; details: DU-145, 48 h; for TGI: read-out: pTGI (converted)
SK-MEL-28 = test: Growth inhibition of human SK-MEL-28 cells after 48 hrs by sulforhodamine B assay; details: SK-MEL-28, 48 h; for CC50: read-out: pLC50 (the source's name) (converted); for TGI: read-out: pTGI (converted)
SF-268 = test: Growth inhibition of human SF268 cells after 48 hrs by sulforhodamine B assay; details: SF-268, 48 h; for TGI: read-out: pTGI (converted)
MDA-MB-468 = test: Growth inhibition of human MDA-MB-468 cells after 48 hrs by sulforhodamine B assay; details: MDA-MB-468, 48 h
NCI/ADR-RES = test: Growth inhibition of human NCI/ADR-RES cells after 48 hrs by sulforhodamine B assay
M14 = test: Growth inhibition of human M14 cells after 48 hrs by sulforhodamine B assay; details: M14, 48 h
HOP-92 = test: Growth inhibition of human HOP92 cells after 48 hrs by sulforhodamine B assay; details: HOP-92, 48 h

For COc1cc(/C=C/c2cc3c(c(OC)c2)O[C@]2(C)CC[C@@H](O)C(C)(C)[C@H]2C3)cc(O)c1C/C=C(\C)CCC=C(C)C, the GI50 (SNB-19) was 3.89 µM, the LC50 (SNB-19) was 41.7 µM and the TGI (SNB-19) was 14.1 µM. For the same compound, the GI50 (RXF 393) was 0.0891 µM, the LC50 (50% lethal concentration) (RXF 393) was 4.17 µM and the TGI (RXF 393) was 0.302 µM. It also gave an LC50 (A549) of 28.2 µM, a GI50 (A549; read-out: GI50) of 2.45 µM and a GI50 (A549; read-out: pGI50 (converted)) of 2.45 µM. It also gave a TGI (A549) of 10.5 µM, a GI50 (SNB-75) of 3.63 µM and an LC50 (SNB-75) of 30.2 µM. For the same compound, the TGI (SNB-75) was 11.7 µM, the GI50 (SW-620) was 1.23 µM and the LC50 (SW-620) was 14.1 µM. The TGI (SW-620) was 3.98 µM, the GI50 (UACC-257) was 6.76 µM and the LC50 (UACC-257) was 29.5 µM. For the same compound, the TGI (UACC-257) was 14.1 µM, the GI50 (MCF7) was 1.02 µM and the LC50 (MCF7) was 17.4 µM. The TGI (MCF7; read-out: pTGI (converted)) was 5.89 µM, the GI50 (A498) was 1.82 µM and the LC50 (A498) was 21.9 µM. It also gave a TGI (A498) of 8.32 µM, a GI50 (MDA-MB-435) of 4.27 µM and an LC50 (MDA-MB-435) of 28.8 µM. The TGI (MDA-MB-435) was 11.7 µM, the GI50 (786-0) was 0.123 µM and the CC50 (786-0) was 4.17 µM. It also gave a TGI (786-0) of 0.363 µM, a GI50 (NCI-H522) of 4.47 µM and an LC50 (NCI-H522) of 32.4 µM. For the same compound, the TGI (NCI-H522) was 12.3 µM, the GI50 (PC-3) was 0.741 µM and the CC50 (PC-3) was 37.2 µM. For the same compound, the TGI (PC-3) was 10 µM, the GI50 (HT-29) was 0.398 µM and the LC50 (concentration killing 50% of cells) (HT-29) was 13.2 µM. For the same compound, the TGI (HT-29) was 2.63 µM, the GI50 (SF-539) was 0.155 µM and the LC50 (SF-539) was 7.59 µM. It also gave a TGI (SF-539) of 1.1 µM, a GI50 (SR) of 1.02 µM and an LC50 (SR) of 22.4 µM. For the same compound, the TGI (SR; read-out: pTGI (converted)) was 3.16 µM, the GI50 (Malme-3M) was 5.13 µM and the LC50 (Malme-3M) was 36.3 µM. For the same compound, the TGI (Malme-3M) was 13.5 µM, the GI50 (COLO 205) was 0.562 µM and the LC50 (COLO 205) was 2.4 µM. The TGI (COLO 205) was 1.17 µM, the GI50 (ACHN) was 2.75 µM and the LC50 (ACHN) was 21.4 µM. The TGI (ACHN) was 9.33 µM, the GI50 (UACC-62) was 1.07 µM and the LC50 (50% lethal concentration) (UACC-62) was 13.8 µM. The TGI (UACC-62) was 3.8 µM, the GI50 (BT-549) was 1.05 µM and the LC50 (BT-549) was 25.1 µM. For the same compound, the TGI (BT-549) was 9.12 µM, the GI50 (LOX IMVI) was 1.41 µM and the LC50 (LOX IMVI) was 15.8 µM. It also gave a TGI (LOX IMVI) of 5.01 µM, a GI50 (DU-145) of 3.8 µM and an LC50 (DU-145) of 22.9 µM. It also gave a TGI (DU-145) of 10.2 µM, a GI50 (SK-MEL-28) of 4.27 µM and a CC50 (SK-MEL-28) of 22.9 µM. The TGI (SK-MEL-28) was 10.7 µM, the GI50 (SF-268) was 2.45 µM and the LC50 (SF-268) was 21.4 µM. The TGI (SF-268) was 9.33 µM.

COCOc1cc(/C=C/c2cc(CO)c3c(c2)C[C@@H]2C(C)(C)[C@H](O)CC[C@@]2(C)O3)cc(OC)c1C/C=C(\C)CCC=C(C)C showed a GI50 (SNB-19) of 11.2 µM, an LC50 (SNB-19) of 77.6 µM and a TGI (SNB-19) of 29.5 µM. It also gave a GI50 (RXF 393) of 0.0661 µM, an LC50 (50% lethal concentration) (RXF 393) of 2.69 µM and a TGI (RXF 393) of 0.355 µM. The LC50 (A549) was over 100 µM, the GI50 (A549; read-out: GI50) was 1.41 µM and the GI50 (A549; read-out: pGI50 (converted)) was 0.977 µM. For the same compound, the TGI (A549) was 26.9 µM, the GI50 (SNB-75) was 0.263 µM and the LC50 (SNB-75) was over 100 µM. The TGI (SNB-75) was 14.8 µM, the GI50 (SW-620) was 1.95 µM and the LC50 (SW-620) was 67.6 µM. It also gave a TGI (SW-620) of 13.5 µM, a GI50 (UACC-257) of 3.47 µM and an LC50 (UACC-257) of over 100 µM. The TGI (UACC-257) was 39.8 µM, the GI50 (A498) was 0.933 µM and the LC50 (A498) was 50.1 µM. It also gave a TGI (A498) of 19.5 µM, a GI50 (MDA-MB-435) of 1.38 µM and an LC50 (MDA-MB-435) of over 100 µM. For the same compound, the TGI (MDA-MB-435) was 56.2 µM, the GI50 (786-0) was 0.158 µM and the CC50 (786-0) was 8.32 µM. The TGI (786-0) was 0.912 µM, the GI50 (MDA-MB-468) was 1.78 µM and the LC50 (MDA-MB-468) was 49 µM. The TGI (MDA-MB-468; read-out: pTGI (converted)) was 12.3 µM, the GI50 (NCI-H522) was 10.5 µM and the LC50 (NCI-H522) was 77.6 µM. For the same compound, the TGI (NCI-H522) was 28.2 µM, the GI50 (PC-3) was 0.912 µM and the CC50 (PC-3) was over 100 µM. The TGI (PC-3) was over 100 µM, the GI50 (HT-29) was 2.04 µM and the LC50 (concentration killing 50% of cells) (HT-29) was over 100 µM. The TGI (HT-29) was 19.1 µM, the GI50 (NCI/ADR-RES) was 8.13 µM and the LC50 (NCI/ADR-RES) was 95.5 µM. For the same compound, the TGI (NCI/ADR-RES; read-out: pTGI (converted)) was 29.5 µM, the GI50 (SF-539) was 0.141 µM and the LC50 (SF-539) was over 100 µM. It also gave a TGI (SF-539) of 12.6 µM, a GI50 (M14) of 0.692 µM and an LC50 (M14) of over 100 µM. It also gave a TGI (M14; read-out: pTGI (converted)) of 21.9 µM, a GI50 (Malme-3M) of 11.7 µM and an LC50 (Malme-3M) of over 100 µM. For the same compound, the TGI (Malme-3M) was 67.6 µM, the GI50 (COLO 205) was 3.55 µM and the LC50 (COLO 205) was 66.1 µM. It also gave a TGI (COLO 205) of 14.1 µM, a GI50 (ACHN) of 2.24 µM and an LC50 (ACHN) of over 100 µM. The TGI (ACHN) was 50.1 µM, the GI50 (UACC-62) was 0.55 µM and the LC50 (50% lethal concentration) (UACC-62) was 57.5 µM. For the same compound, the TGI (UACC-62) was 10.7 µM, the GI50 (BT-549) was 1.38 µM and the LC50 (BT-549) was 50.1 µM. The TGI (BT-549) was 17.8 µM, the GI50 (LOX IMVI) was 0.55 µM and the LC50 (LOX IMVI) was 18.2 µM. The TGI (LOX IMVI) was 3.02 µM, the GI50 (DU-145) was 3.8 µM and the LC50 (DU-145) was 52.5 µM. For the same compound, the TGI (DU-145) was 20 µM, the GI50 (HOP-92) was 2.57 µM and the LC50 (HOP-92) was 45.7 µM. It also gave a TGI (HOP-92; read-out: pTGI (converted)) of 16.6 µM, a GI50 (SK-MEL-28) of 1.2 µM and a CC50 (SK-MEL-28) of over 100 µM. The TGI (SK-MEL-28) was 30.9 µM, the GI50 (SF-268) was 4.07 µM and the LC50 (SF-268) was 55 µM. For the same compound, the TGI (SF-268) was 20.9 µM.

Reference: ChEMBL document CHEMBL1926642, “Relevance of the C-5 position to schweinfurthin induced cytotoxicity” (2011)
